# Assay: stability testing of initial lyophilized ceftolozane pharmaceutical compositions, HPLC
# Assay type: physicochemical
# Settings: certain lyophilized pharmaceutical compositions initially evaluated for intravenous administration
# Description: As disclosed herein, ceftolozane was unstable in certain lyophilized pharmaceutical compositions initially evaluated for intravenous administration. In particular, a decrease in ceftolozane purity and the formation of multiple additional related substances were detected in certain initial ceftolozane pharmaceutical compositions by peaks in […] (HPLC) after stability testing. This testing pointed to the need to develop novel ceftolozane formulations providing increased ceftolozane stability. […] Nor does this disclosure provide guidance on the formation of ceftolozane pharmaceutical compositions to increase ceftolozane purity during stability testing or control the relative amounts of ceftolozane related substances detected by HPLC peak formation during stability testing.
smiles,measurement,value
"Cn1c(N)c(NC(=O)NCCN)c[n+]1CC1=C(C(=O)O)N2C(=O)[C@@H](NC(=O)/C(=N\OC(C)(C)C(=O)[O-])c3nsc(N)n3)[C@H]2SC1 [ceftolozane, (6R,7R)-3-[(5-amino-4-{[(2-aminoethyl)carbamoyl]amino}-1-methyl-1H-pyrazol-2-ium-2-yl)methyl]-7-({(2Z)-2-(5-amino-1,2,4-thiadiazol-3-yl)-2-[(1-carboxy-1-methylethoxy)imino]acetyl}amino)-8-oxo-5-thia-1-azabicyclo[4.2.0]oct-2-ene-2-carboxylate]",ceftolozane stability in lyophilized composition,unstable

# — patent US20140274990A1, “CEFTOLOZANE PHARMACEUTICAL COMPOSITIONS” (Cubist Pharmaceuticals, Inc., priority 2013, published 2014)
